According to patent publication US5814627A, “3, 5-disubstituted and 3, 4, 5-trisubstituted 2-isoxazolines and isoxazoles, process for their preparation and their use as pharmaceuticals” (Hoechst Aktienegesellschaft, priority 1994, dated 1998):

Key:
[1] = tested on: cyclooxygenase-dependent thrombocyte aggregation; assay: Test 5: Cyclooxygenase-dependent thrombocyte aggregation; assay type: cell-based, human; settings: Homo sapiens, arachidonic acid as inducer, read-out: Test 5 residual activity (cyclooxygenase-dependent thrombocyte aggregation), percent of control
In short: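 Citrated human platelet-rich plasma was preincubated 10 min at 37 °C with test substance diluted 1:30 in 50 mM Tris-HCl pH 8.0, 90 mM NaCl. Aggregation was triggered with arachidonic acid (5 mg/ml, 20 μl) under 800 rpm stirring in an aggregometer. Values are tested concentration (μM) and residual activity as % of control.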

[2] = tested on: IL-1α release from mononuclear cells; assay: Test 4: cytokine release from LPS-stimulated mononuclear cells, IL-1α; assay type: cell-based; settings: Homo sapiens, read-out: Test 4 residual activity (IL-1α release), percent of control
Protocol: (§1) Test 4. Stimulation of the cytokine release
(§2) Isolation of mononuclear cells from human blood
(§3) 10 ml of human blood, stabilized with 1 ml of 3.8% sodium citrate solution, were diluted with 10 ml of PM16 (Serva, Heidelberg) and underlaid with 15 ml of Lymphoprep (Dr. Molter GmbH, Heidelberg). The samples were centrifuged, at room temperature for 40 minutes, at 400×g (1600 rpm, Minifuge 2, Heraeus, Osterode). The mononuclear cells are visible as a white ring at the Lymphoprep/plasma interface. This ring was carefully removed with a syringe, diluted with an equal volume of PM16, and centrifuged for 10 minutes at 400×g. The sediment was washed with approximately 10 ml of RPMI1640 (+300 mg/l L-glutamine, Gibco, Eggenstein) (Wallis, 1986). After the cells had been resuspended in approximately 1 ml of RPMI1640 (+300 mg/l L-glutamine+25 mM HEPES+100 μg/ml streptomycin+100 μg/ml penicillin), the cell density was determined using a Coulter Counter JT (Coulter Diagnostics) and adjusted to 5*10^6 /ml. Typically, the cells are composed of 90% lymphocytes and 10% monocytes.
230 μl of mononuclear cells were incubated, at 37° C.; 5% CO2 for 20-22 hours (5 hours in the case of IL-6), with 10 μl of test substance ([…]) and 10 μl of lipopolysaccharide (LPS; 500 μg dissolved in 1 ml of DMSO and diluted 1/10 with water prior to beginning the test; from Salmonella abortus equi, Sigma, Deisenhofen). The samples were cooled down to 0° C. in an ice bath and centrifuged in a Sigma centrifuge (2 minutes; 2000 rpm). Aliquots of the supernatant are measured with an ELISA (Biermann, Bad Nauheim). The abbreviation IL stands for interleukin and TNF for tumor necrosis factor alpha.
(§4) The values in the table show the concentration of the test substance which was employed in μM and, besides this, the residual activity measured in percent based on the control, which was set to be 100%. The interleukin is additionally indicated in test 4.

[3] = tested on: tumor cell line 20-10-5S (hybridoma cell line); assay: Test 8: Inhibition of tumor cell proliferation; assay type: cell-based; settings: 48 h + 16 h tritiated thymidine incorporation; 20-10-5S cells
Protocol: The tumor cell line 20-10-5S (hybridoma cell line, supplied by ATCC (American Type Culture Collection)), which produces an antibody against mouse T cells) was used for determining the antiproliferative property of test substances. The cells were cultured, at 37° C. and 5% C2, under serum-free conditions in CG medium (cell-growth medium=Iscove-ATL (+albumin+transferrin+lipids); from Vitromex, Vilshofen). Only cells which were in the logarithmic phase of growth were used for the test mixture. The test substances were pipetted in various concentrations (from 1 to 50 μM), together with 4×10^3 20-10-5S cells, into round-bottomedmicrotiter plates (total volume with medium, 200 μl). After an incubation time of 48 h (37° C. and 5% CO2), 25 μl of tritiated thymidine (=0.25 μCi/test mixture, specific activity, 23 Ci/mM) were added to the plates. During the subsequent 16 h, the radioactively labeled thymidine was incorporated into the DNA of the growing cells. The samples were filtered off with suction on glass fiber filters and the incorporated radioactivity was measured using a β counter (Beta Plate System 1205 from Wallac).

[4] = tested on: TNFα release from mononuclear cells; assay: Test 4: cytokine release from LPS-stimulated mononuclear cells, TNFα; assay type: cell-based; settings: Homo sapiens, read-out: Test 4 residual activity (TNFα release), percent of control
Protocol: as §1, §2, §3
230 μl of mononuclear cells were incubated, at 37° C.; 5% CO2 for 20-22 hours (5 hours in the case of IL-6), with 10 μl of test substance (10 μM in DMSO/water, 1/10) and 10 μl of lipopolysaccharide (LPS; 500 μg dissolved in 1 ml of DMSO and diluted 1/10 with water prior to beginning the test; from Salmonella abortus equi, Sigma, Deisenhofen). The samples were cooled down to 0° C. in an ice bath and centrifuged in a Sigma centrifuge (2 minutes; 2000 rpm). Aliquots of the supernatant are measured with an ELISA (Biermann, Bad Nauheim). The abbreviation IL stands for interleukin and TNF for tumor necrosis factor alpha.
as §4

[5] = tested on: polymorphonuclear leucocytes (PMNL); assay: Test 1: Release of proteolytic activity from human PMNL; assay type: cell-based; settings: Homo sapiens, PMNL, read-out: Test 1 residual activity (release of proteolytic activity), percent of control
Protocol: Isolation of polymorphonuclear leucocytes (PMNL) from human peripheral blood for carrying out tests 1 and 2 10 ml of human blood were diluted with 10 ml of HBSS (Serva) and underlaid with 15 ml of Lymphoprep (Dr. Molter GmbH, Heidelberg). […] A white ring, composed of mononuclear cells, is located between these two phases. The lowermost phase is composed of erythrocytes which are covered with a white layer of PMNL. The uppermost phase, and also the Lymphoprep and the white ring, were carefully removed using a syringe. The remaining sediment was carefully resuspended in 15 ml of 3% dextran in PM16 (mw: 485,000, Sigma, Deisenhofen). The suspension was then left to stand at room temperature for one hour. During this time, the erythrocytes sedimented while the PMNL remained in the supernatant. The supernatant was removed, diluted with an approximately equal volume of PM16, and centrifuged for 15 minutes at 400×g. Should the PMNL sediment be heavily contaminated with erythrocytes, it is necessary to carry out a hypotonic lysis. To do this, the sediment was resuspended in 750 μl of water. After exactly 15 seconds, the suspension was diluted with approximately 7 ml of PM16 and centrifuged for 10 minutes at 400×g. If necessary, this lysis was repeated once more. Otherwise, the PMNL sediment was resuspended in a suitable medium. 250 μl of PMNL (5·10^6 cells/ml of PBS containing 7.5 mM glucose) were incubated at 37° C. for 20 minutes with 1 μl of test substance. 1 μl of cytochalasin B (5 μg/ml of test mixture) was then added and the mixture was incubated at 37° C. for a further 5 minutes. Following the addition of 1 μl of […] necrosis factor alpha (TNF; 30 ng/ml of test mixture), the incubation was continued for 5 minutes. The release was started using 1 μl of fMLP (10 nmol/l of test mixture). After 60 minutes at 37° C., the reaction was terminated by cooling the samples down to 0° C. The samples were then centrifuged, and the supernatant was removed and frozen down. Cytochalasin B and fMLP were dissolved in DMSO and TNF was diluted with buffer. 50 μl of the supernatant were mixed with 175 μl of buffer (100 mM HEPES, pH 7.5; 500 mM NaCl) in a 96-well microtiter plate. Following the addition of 25 μl of substrate (methoxysuccinyl-[…]-nitroanilide), the extinction of each well was measured at 405 nm after 0, 5, 10, 15, 30 and 60 minutes. […] The interleukin is additionally indicated in test 4.

[6] = tested on: polymorphonuclear leucocytes (PMNL); assay: Test 2: Release of oxygen radicals from human PMNL; assay type: cell-based; settings: read-out: Test 2 residual activity (release of oxygen radicals), percent of control
Protocol: Isolation of polymorphonuclear leucocytes (PMNL) from human peripheral blood for carrying out tests 1 and 2 10 ml of human blood were diluted with 10 ml of HBSS (Serva) and underlaid with 15 ml of Lymphoprep (Dr. Molter GmbH, Heidelberg). The sample was then centrifuged for 25 minutes at 400×g (1600 revolutions per minute, Minifuge 2, Heraeus, Osterode). […] A white ring, composed of mononuclear cells, is located between these two phases. The lowermost phase is composed of erythrocytes which are covered with a white layer of PMNL. The uppermost phase, and also the Lymphoprep and the white ring, were carefully removed using a syringe. The remaining sediment was carefully resuspended in 15 ml of 3% dextran in PM16 (mw: 485,000, Sigma, Deisenhofen). The suspension was then left to stand at room temperature for one hour. During this time, the erythrocytes sedimented while the PMNL remained in the supernatant. The supernatant was removed, diluted with an approximately equal volume of PM16, and centrifuged for 15 minutes at 400×g. Should the PMNL sediment be heavily contaminated with erythrocytes, it is necessary to carry out a hypotonic lysis. To do this, the sediment was resuspended in 750 μl of water. After exactly 15 seconds, the suspension was diluted with approximately 7 ml of PM16 and centrifuged for 10 minutes at 400×g. If necessary, this lysis was repeated once more. Otherwise, the PMNL sediment was resuspended in a suitable medium.
The PMNL were resuspended (5·10^6 cells/ml) in Dulbecco's PBS, supplemented with 7.5 mM glucose. Care must be taken to ensure that the PMNL are free of erythrocytes. 100 μl of PMNL, 700 μl of PBS+glucose and 100 μl of cytochrome C (9.38 mg/ml of PBS+glucose) were mixed in a semi-microcuvette. 100 μl of PMNL, 500 μl of PBS+glucose, 100 μl of cytochalasin B ([…]), 100 μl of TNF (0.05 ng) and 100 μl of cytochrome C (9.38 mg/ml of PBS+glucose) were mixed for the fMLP-induced release of oxygen. Measurements were made in a double-beam photometer meter (Perkin-Elmer 552 S) at a wavelength of 550 nm. The measurement range is 0-1 extinction units. The cuvettes were temperature-equilibrated to 37° C. The reference cuvette additionally contained 10 μl of SOD (6 mg of SOD/ml of PBS+glucose). Following a preincubation of 5 minutes, the reaction is started with 100 μl of inducer. The reaction is started with 1·10^-7 mol of fMLP.
as §4

[7] = tested on: adjuvant/arthritis model; assay: Test 6: antiarthritic effect in the adjuvant/arthritis model; assay type: in vivo, rat (Wistar-Lewis); settings: Rattus norvegicus, po, 408 h, daily for 17 days, rat, read-out: Test 6 Paw volume (% inhibition)
Protocol: Male rats of a Wistar-Lewis strain (Mollegaard/Denmark) were used as experimental animals. The body weight is between 160 and 200 g. Subplantar injection of 0.1 ml of Freund's adjuvant (=6 mg of Mycobacterium butyricum suspension, Difco Lab./Detroit, Mich. USA, per ml of heavy white paraffin oil, Merck, Darmstadt) into the root of the tail resulted, on the 10th to 14th day of the experiment, in immunopathological processes and chronic inflammations, particularly in the form of arthritic and periarthritic symptoms, at other sites in the body (secondary lesions). The animals were fed ad libitum with the standard feed Altromin-R, from Altrogge, Lage, and provided with tap water. The animals were given 60 mg of codein per kg as an analgesic from the 14th day to the end of the experiment. The test substances were administered orally as a CMC suspension, in an injection volume of 1 ml/100 g of body weight, on each day (in all for 17 days), beginning on the day of the adjuvant administration. The volumes of each of the hind paws, and the body weight, were measured on the first and on the 18th day of the experiment. Diminution in the increase of paw volume, as compared with the untreated control group, served as the criterion of activity, with the two hind paws being averaged.

[8] = tested on: PAF-induced asthma attack; assay: Test 7: antiasthmatic effect, PAF-induced asthma attack; assay type: in vivo; settings: Cavia porcellus; i.d., 15 minutes before PAF; guinea pig
Protocol: Test 7: Testing for antiasthmatic effect
Anesthetized guinea pigs, which were cannulated in the jugular vein to allow injection of the PAF, were used for testing for antiasthmatic effect. The test preparations were also administered intravenously (i.v.), 5 min before PAF administration, into the blood stream through the same venous cannula, or else administered intraduodenally (i.d.), 15 minutes before the PAF, through an opening in the duodenum which had been installed and cannulated surgically. The bronchial width was recorded in an overflow pneumonogram before and after administering the preparation. Evaluation: ED50 in mg/kg i.d. as compared with the PAF-induced asthma attack.

SMILES | IC50 [3] [µM] | activity at 10 µM [2] [%] | activity at 10 µM [1] [%] | activity at 10 µM [5] [%] | activity at 100 µM [5] [%] | activity at 10 µM [6] [%] | ED50 [8] [mg/kg] | further results
CCOC(=O)C(C)(C)OCc1cc(-c2cc(C(C)(C)C)c(O)c(C(C)(C)C)c2)no1 [Example 35] | – | 84 | – | – | – | – | – | activity at 100 µM ([1]; 100 μM): 94%
C[C@@H](O)[C@@H]1CC(c2cc(C(C)(C)C)c(O)c(C(C)(C)C)c2)=NO1 (relative stereo) [Example 19] | < 5 | – | 100 | 78 | 20 | 94 | – | inhibition in vivo at 25 mg/kg ([7]; 25 mg/kg orally): 85%
CC(=O)C1CC(c2cc(C(C)(C)C)c(O)c(C(C)(C)C)c2)=NO1 (centres unmarked) [Example 13] | 6.1 | – | 98 | 77 | 20 | 65 | ~50 | activity at 25 µM ([6]; 25 μM): 22%; inhibition in vivo at 50 mg/kg ([7]; 50 mg/kg orally): 84%

Continued, in another order:

IC50 [3] [µM] | SMILES | activity at 10 µM [2] [%] | activity at 10 µM [1] [%] | activity at 10 µM [5] [%] | activity at 100 µM [5] [%] | activity at 10 µM [6] [%] | ED50 [8] [mg/kg] | further results
< 5 | CC(C)(C)c1cc(-c2cc(CCCO)on2)cc(C(C)(C)C)c1O [Example 26] | – | 94 | – | – | – | – | activity at 10 µM [4]: 88%
30 | CC(=O)c1cc(-c2cc(C(C)(C)C)c(O)c(C(C)(C)C)c2)no1 [Example 59, 3-(4-Hydroxy-3,5-di-tert-butylphenyl)-5-acetylisoxazole] | – | – | 61 | 35 | 48 | 1 to 3 | activity at 1 µM ([5]; 1 μM): 91%; activity at 1 µM ([6]; 1 μM): 135%
5 to 10 | CC(O)C1CC(c2cc(C(C)(C)C)c(O)c(C(C)(C)C)c2)=NO1 (centres unmarked) [Example 18] | 89 | – | – | – | – | – | activity at 100 µM ([2]; 100 μM): 36%
